Patent US20240398767A1, “INHIBITORS OF THE MTDH-SND1 PROTEIN COMPLEX FOR CANCER THERAPY” (The Trustees of Princeton University, priority 2021, published 2024)
Entries after “also recorded” stand apart in the source; their conditions may differ.

How the values were obtained:
[1] = system: orthotopic PyMT tumors; experiment: Established orthotopic PyMT tumors in FVB female mice; assay type: in vivo
Procedure: FIG. 5B, Tumor size was determined. Vehicle, n=10 mice, C26-A6, n=12 mice. Significance determined by Two-Way Repeated Measures ANOVA test.
FIG. 5C, Tumor mass was determined. Vehicle, n=10 mice, C26-A6, n=12 mice. Size bar, 2 cm.
FIG. 5D, H&E staining was performed with lungs, and metastatic nodules were counted. The metastatic nodules of the representative lungs were highlighted with red and blue respectively. Vehicle, n=10 lungs; C26-A6, n=12 lungs. Size bar, 5 mm.
FIG. 13D, Primary tumors from experiment in FIG. 5B were stained with Ki67 and Cleaved-Caspase 3 (Casp-3) antibodies. Size bar, 100 μm.
FIG. 13E, Positive cells were quantified. Data represent mean±SEM. n=6 mice.
Next, established orthotopic PyMT tumors^4 were treated with vehicle or C26-A6 (FIG. 5A). […] The results were confirmed with SCP28 xenograft tumor model in NSG mice (FIGS. 13A-13C).
Methods: Animal models. All procedures involving mice and experimental protocols were approved by the Institutional Animal Care and Use Committees (IACUC) of Princeton University. According to the approved IACUC protocol (1881-20), the primary humane endpoint of tumor burden for an individual mouse is 20 mm in any dimension or a total volume of 4000 mm^3 for mice with multiple tumors. Mice were euthanized before exceeding the limit of tumor burden in this study. In the facility, mice were maintained at 20-22° C. with 14 h:10 h light:dark cycles at 40-70% relative humidity. The Mtdh^fl/fl ES cell lines generated by Mtdh targeting vector (CSD48311) was obtained from the KOMP Repository. The ES cells were injected into the C57BL/6 blastocysts followed by confirmation of germline transmission. Mtdh^fl/fl mice were crossed with FLPe mice to remove the selection marker in the vector. Genotyping (Forward primer: […] (SEQ ID NO:21); Reverse primer: […] (SEQ ID NO:22)) was performed to identify positive mice before they were crossed to other strains that were indicated in each experiment. FLPe (Stock No. 003946), MMTV-PyMT (Stock No. 002374), MMTV-WNT1 (Stock No. 002934), C3 (Stock No. 013591), UBC-Cre^ERT2 (Stock No. 007001), FVB (Stock No. 001800), Balb/C (Stock No. 000651), Athymic nude (Nude) (Stock No. 002019), and NOD Scid Gamma (NSG) (Stock No. 005557) were obtained from Jackson Laboratory. Mice in C57BL/6 background were backcrossed to FVB for at least 10 generations to change the background. […] The tumors were measured by calipers for calculation of tumor volumes (length×width^2/2). For cell lines that are stably labeled with a firefly luciferase expressing vector, lung metastases were monitored by bioluminescent imaging (BLI) and images were processed with Living Image 3D Analysis (version 1.0). […]

[2] = Toxicity in PyMT tumor-bearing FVB mice (body weight, ALT/AST, blood cell counts, small intestine); assay type: in vivo; conditions: 15 mg/kg i.v.
Procedure: FIG. 12D, Body weight of the mice in experiment from FIG. 5B was measured. Vehicle, n=10 mice; C26-A6, n=12 mice.
FIG. 12E, Serum from mice in experiment in FIG. 5B were collected for ALT and AST activity measurement following the standard protocol (Sigma). Three FVB females treated with 200 μl of 8% CCl4 in corn oil for 2 days served as positive control. Data represent mean±SEM. n=5 mice per group. Significance determined by one-way ANOVA analysis with Dunnett's test for multiple comparisons.
FIG. 12F, Blood samples were drawn from the heart of mice in experiment FIG. 5B, and blood cell counts were performed with the Sysemx XN-3000 Hematology System (Sysmex America, Inc.) Data represent mean±SEM. Vehicle, n=6 mice; C26-A6, n=5 mice. Significance determined by two tailed Student's t-test.
FIG. 12G, Small intestine samples were obtained from mice in experiment from FIG. 5B. H&E and Alcian blue staining was performed on processed, sliced samples. Scale bar: 200 μm.
FIG. 12H, Quantification of Alcian blue staining results from (FIG. 12G). Data represent mean±SEM. n=12 fields from 5 mice in each group. Significance determined by two tailed Student's t-test.

[3] = 15 mg/kg i.v., continuous treatment

SMILES: COc1ccc(Cl)cc1S(=O)(=O)Nc1cccn2nc(C)nc12 [Analog C26-A6]
- primary tumor growth [1, 3]: significantly inhibited
- spontaneous lung metastasis [1, 3]: significantly inhibited
- tumor apoptosis (cleaved-Caspase 3) ([1]; IHC of primary tumors): induced tumor apoptosis
- tumor proliferation (Ki67) ([1]; IHC of primary tumors): reduced tumor proliferation
- hematologic, GI tract, and liver toxicity / tolerability [2]: no significant hematologic, GI tract, and liver toxicity; also recorded: well-tolerated in vivo with minimal toxicity
